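Following 48 hours of exposure in 96-well plates, responses at five concentrations were used to interpolate endpoints linearly. GI50 = concentration required for 50% inhibition of growth.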 Activity calls are given as the source filed them. Rule as the data show it: active = GI50 up to about 1.1 µM and inactive = higher.
Columns and labels:
Experiment in all cases: NCI tumour cell line growth inhibition, 48 h
A549 = system: A549
BT-549 = system: BT-549
CCRF-CEM = system: CCRF-CEM
COLO 205 = system: COLO 205
HCC 2998 = system: HCC 2998
HT-29 = system: HT-29
MCF7 = system: MCF7
MDA-MB-435 = system: MDA-MB-435
MDA-N = system: MDA-N
NCI-H226 = system: NCI-H226
NCI-H23 = system: NCI-H23
OVCAR-5 = system: OVCAR-5
SK-OV-3 = system: SK-OV-3
SNB-19 = system: SNB-19
SW-620 = system: SW-620
TK-10 = system: TK-10
U-251 = system: U-251
UACC-257 = system: UACC-257
NCI-H460 = system: NCI-H460

Measured: GI50

CCSc1n/c(=C\c2ccco2)c2nnnn12
inactive: A549 > 100 µM | BT-549 > 100 µM | CCRF-CEM > 100 µM | COLO 205 > 100 µM | HCC 2998 > 100 µM | HT-29 > 100 µM | MCF7 > 100 µM | MDA-MB-435 > 100 µM | MDA-N > 100 µM | NCI-H226 > 100 µM | NCI-H23 > 100 µM | OVCAR-5 > 100 µM | SK-OV-3 > 100 µM | SNB-19 > 100 µM | SW-620 > 100 µM | TK-10 > 100 µM | U-251 > 100 µM | UACC-257 > 100 µM

O=c1n(Cc2ccccc2)c(=O)n2c(=O)n(Cc3ccccc3)c(=O)n12
inactive: BT-549 > 100 µM | CCRF-CEM > 100 µM | COLO 205 38.3 µM | HCC 2998 > 100 µM | HT-29 54.6 µM | MCF7 > 100 µM | MDA-MB-435 > 100 µM | MDA-N > 100 µM | NCI-H226 > 100 µM | NCI-H23 > 100 µM | NCI-H460 > 100 µM | SK-OV-3 > 100 µM | SNB-19 > 100 µM | SW-620 > 100 µM | TK-10 > 100 µM | U-251 > 100 µM | UACC-257 > 100 µM

CCCCSC1=N/C(=C\c2ccccc2O)C(Cl)=N1
inactive: A549 > 100 µM | BT-549 > 100 µM | COLO 205 > 100 µM | HCC 2998 > 100 µM | HT-29 > 100 µM | MCF7 > 100 µM | MDA-MB-435 > 100 µM | MDA-N > 100 µM | NCI-H226 > 100 µM | NCI-H23 > 100 µM | NCI-H460 > 100 µM | OVCAR-5 > 100 µM | SK-OV-3 > 100 µM | SNB-19 > 100 µM | SW-620 > 100 µM | TK-10 > 100 µM | U-251 > 100 µM | UACC-257 > 100 µM

CC(=O)OCC(OC(C)=O)C(OC(C)=O)C(OC(C)=O)C(C=NN(C(C)=O)S(=O)(=O)c1ccc(/C=C2\NC(=O)N(C)C2=O)cc1)OC(C)=O (stereo not given)
inactive: A549 47 µM | BT-549 12.4 µM | COLO 205 29.3 µM | HCC 2998 16.3 µM | HT-29 24.7 µM | MCF7 30.2 µM | MDA-MB-435 33.1 µM | MDA-N 32.6 µM | NCI-H226 22.8 µM | NCI-H23 36.1 µM | NCI-H460 18.8 µM | OVCAR-5 37.8 µM | SK-OV-3 31.4 µM | SNB-19 38.2 µM | SW-620 26.4 µM | U-251 22.6 µM | UACC-257 44.8 µM

Source: ChEMBL document CHEMBL1201862, “PubChem BioAssay data set” (2004)
